Data set [1] deals with HSV-2. The experiment in a line: Post treatment assay, HSV-2 infected Vero cells. The note with it: Human alphaherpesvirus 2, Vero, read-out: antiviral activity value when added post-infection. Type of data set: cell-based, Herpes 2 virus (HSV-2). As for the experimental part:
Supernatants and cells were harvested and cell free virus infectivity titers were determined in duplicate by plaque assay in Vero cell monolayers. Percent inhibition was determined by comparing the titer measured in the presence of the compounds to that measured in untreated wells.

Data set [2] in a line: Cell viability (MTS) assay, Hep-2 cells. In kind it is cell-based. The note with it: human, conditions of the RSV assay. As for the experimental part:
(§1) Cell viability was measured using the MITS [3-(4,5-dimethylthiazol-2-yl)-5-(3 carboxy methoxy phenyl)-2-(4-sulfophenyl)-2H-tetrazolium] assay. Cell cultures were seeded in 96-well plates and were incubated with different concentrations of compounds of the invention in triplicate under the same experimental conditions described for the antiviral assays. Cell viability was determined using the CellTiter 96 Proliferation Assay Kit (Promega, Madison, WI, USA) according to the manufacturer's instructions. Absorbances were measured using a Microplate Reader (Model 680, BIORAD) at 490 nm. The effect on cell viability at different concentrations of the compound was expressed as a percentage, by comparing absorbances of treated cells with those of cells incubated with culture medium and equal volumes of vehicle. The 50% cytotoxic concentrations (CC50) and 95% confidence intervals (CIs) were determined using Prism software (Graph-Pad Software, San Diego, CA).

For data set [3], the system named is ZIKAV. The experiment in a line: ZIKA virus plaque reduction assay on Vero cells. Type of data set: cell-based, Zika virus (PRVABC59).
The test system of data set [4] is HSV-1. The data set is described as follows: HSV-1 plaque reduction assay on Vero cells. Type of data set: cell-based, Herpes 1 virus (HSV-1). The note with it: Human alphaherpesvirus 1, Vero. For orientation: In a plaque reduction assay, fewer plaques than in the control indicate reduced infectivity or spread.
Data set [5] in a line: Cytotoxicity, XTT test. The note with it: human. (Tetrazolium dyes change colour on reduction, which living cells bring about.)
Data set [6] concerns DENV-2. The data set is described as follows: DENV plaque reduction assay on Huh-7 cells. Type of data set: cell-based, Dengue virus. As for the experimental part: The effect of compounds on DENV infection was evaluated by plaque reduction assay. Huh-7 cells were pre-plated 24 h in advance in 24-well plates at a density of 10^5 cells. Concentrations of compounds ranging from 50 μM to 0.0001 μM in DMSO were mixed with DENV-2 (MOI 0.01 pfu/cell) and incubated for 1 hour at 37° C. The mixtures were subsequently added to the cells, which were then incubated at 37° C. for 2 h. The virus inoculum was then removed and the cells washed and overlaid with a medium containing 1.2% methylcellulose (Sigma). After further incubation at 37° C. for 72 h cells were fixed and stained with 0.1% crystal violet in 20% ethanol and viral plaques counted. The effective concentration producing 50% reduction in plaque formation (EC50) were determined using Prism software by comparing drug-treated wells with wells treated with medium and DMSO. The selectivity index (SI) was calculated by dividing the CC50 by the EC50 value.

Data set [7] is described as follows: Cell viability (MTS) assay, Huh-7 cells. Type of data set: cell-based. The note with it: human, conditions of the DENV-2 assay (Table 6). As for the experimental part: as §1
Data set [8] in a line: in vitro. The note with it: dog.
The test system of data set [9] is HSV-2. The experiment in a line: During infection assay, HSV-2 on Vero cells without preincubation. In kind it is cell-based, Herpes 2 virus (HSV-2). The note with it: Human alphaherpesvirus 2; HSV-2, Vero cells, no preincubation of compound and virus; read-out: EC50 in during infection (DI) assay. As for the experimental part:
During infection cells were subjected to the same experiment described above for the evaluation of HSV inhibition without the preincubation between compounds and virus.

Data set [10] has as its system HSV-2. The experiment in a line: Entry of virus into cell (ELISA, immunofluorescence). In kind it is cell-based, Herpes 2 virus (HSV-2). The note with it: 10 μM, HSV-2, Vero cells. As for the experimental part:
Cells were plated in 96 well plates. The following day 10 μM of compound 15b in DMSO and HSV-2 (MOI 10 pfu/cell) were incubated for 1 h at 37° C. and subsequently added on cells for 1 hour at 4° C. Cells were then washed and shifted at 37° C. for 1 h and 30 minutes. Cells were then fixed with 4% paraformaldehyde, air dried and permeabilized with PBS-TRITON (0.5%) and then the same protocol described for binding was followed.
Vero cells were pre-plated on coverslips and the following day the binding or entry protocol described above was applied. Cells were then fixed with 4% paraformaldehyde, air dried and for entry protocol permeabilized with PBS-TRITON. Blocking was performed with PBS-BSA1% for 1 h at room temperature and subsequently HSV-2 polyclonal antibody (B011402-2 Dako) (1:250) was added on cells, after 1 hour at 37° C. the inoculum was removed and coverslips were washed with PBS-TWEEN for 3 times. Rhodamine conjugated anti-rabbit IgG (Santa Cruz) was then added on cells for 1 h at 37° C. following 3 washes coverslips were mounted on microscope glasses and observed with Zeiss LSM510 fluorescence microscope (Zeiss, Oberkochen, Germany) and images were acquired (FIG. 3A, 3B).
(In general: An ELISA detects its analyte on a solid surface through an enzyme-linked reagent.)

For data set [11], the system named is HIV Strain NL4-3. The data set is described as follows: HIV-1 inhibition assay, strain NL4-3, TZM-bl cells, CPRG readout. In kind it is cell-based. The note with it: Human immunodeficiency virus 1, NL43, virus pretreated 1 h at 37° C. with compound. Here is the method:
The human TZM-bl indicator cell line (obtained from the NIH AIDS reagents program, cat. Nr 8129, www.aidsreagent.org) was maintained at 37° C. and 5% CO2 in Dulbecco's modified Eagle's medium (DMEM) medium containing 10% fetal bovine serum, 50 μg/ml penicillin, and 50 μg/ml streptomycin. The HIV-1 laboratory strains NL (AD8) (NIH AIDS reagents program, cat. Nr, 11346) and NL4.3 (NIH AIDS reagents program, cat. Nr. 114) were titrated as previously reported by Tiberi et al (2014). Briefly, serial 5-fold dilutions of each virus were made in quadruplicate wells in 96-well culture plates, in a total volume of 100 μl of growth medium (DMEM), for a total of 8 dilution steps. Freshly trypsinized cells (20,000 cells in 100 μl of growth medium containing 75 μg/mL DEAE-dextran) were added to each well, and the plates were incubated at 37° C. in a humidified 5% CO2-95% air environment. After 48 h of incubation, the medium was removed and viral infection was quantified using a β-galactosidase (CPRG) assay (Roche). Twenty thousand TZM-bl cells/well were seeded in 96-well plates in complete DMEM supplemented with 30 μg/ml DEAE-dextran (Sigma-Aldrich). Three hundred times the 50% tissue culture infective dose (TCID50)/ml of each strain was pretreated for 1 h at 37° C. with six serial dilutions (10000 nM, 2000 nM, 400 nM, 80 nM, 16 nM, 3.2 nM) and then added to the cells. Vehicle (0.1% dimethyl sulfoxide [DMSO])-treated cells served as a negative control. […] After 2 days, viral infection was quantified using a CPRG assay (Roche cat nr 11379119103). The inhibitory curves were fitted by nonlinear regression, allowing for the calculation of the 50% effective concentration (EC50) using the Prism software. To evaluate the cell toxicity of the compounds, the metabolic XTT [2,3-bis-(2-methoxy-4-nitro-5-sulfophenyl)-2H-tetrazolium-5-carboxanilide] test (Sigma-Aldrich) was performed according to the manufacturer's instructions.

Molecules are shown by their SMILES. “Also recorded” adds a separate entry of the source.

A word on the EC90: it is the concentration at which the effect reaches the 90% level. A low value points to an effect from little substance.

Regarding `O=C1NC(=S)N(CCc2ccccc2)C(=O)/C1=C\c1ccc(-c2ccc(C(=O)O)c(O)c2)[nH]1` [Compound 15b, (Z)-4-(5-((4,6-dioxo-1-phenethyl-2-thioxotetrahydropyrimidin-5(2H)-ylidene)methyl)-1H-pyrrol-2-yl)-2-hydroxybenzoic Acid], the EC50 in [1] turned out to be 775 nM; in data set [3] (Zika virus, Vero, ZIKAV infected cells), 43.3 nM; in data set [4], 454 nM; in [6] (Dengue virus, DENV2, Huh-7, DENV-2 infected cells), 1400 nM; in [9], 7890 nM; in [11] it was 64 nM. The CC50 is 241000 nM in data set [2], > 20000 nM in data set [5], 7900 nM in data set [7] and > 300000 nM in data set [8]. Further, the SI selectivity index in data set [3] (ZIKAV, CC50 divided by EC50) was >2563; in data set [6] (DENV-2, CC50 divided by EC50), 5.6. In [4], this compound showed an EC90 of 3720 nM. In data set [10], the “percentage of internalized virus” value is on record as “decreased; also recorded: lower”.

The values are drawn from patent US11814366B2, “Antiviral compounds and use thereof” (UNIVERSITA DEGLI STUDI DI SIENA, priority 2018, dated 2023).
